In patent US12440496B2, “Natriuretic peptide receptor a agonists useful for the treatment of cardiometabolic diseases, kidney disease and diabetes” (Merck Sharp & Dohme LLC, priority 2019, dated 2025) one finds EC50 data, which are given here for 15 compounds.

For the assay, the target named is T1, hNPRA (Homo sapiens, UniProt P16066).
T1 construct: expressed in transfected cells
T1 sequence (P16066 33-1061): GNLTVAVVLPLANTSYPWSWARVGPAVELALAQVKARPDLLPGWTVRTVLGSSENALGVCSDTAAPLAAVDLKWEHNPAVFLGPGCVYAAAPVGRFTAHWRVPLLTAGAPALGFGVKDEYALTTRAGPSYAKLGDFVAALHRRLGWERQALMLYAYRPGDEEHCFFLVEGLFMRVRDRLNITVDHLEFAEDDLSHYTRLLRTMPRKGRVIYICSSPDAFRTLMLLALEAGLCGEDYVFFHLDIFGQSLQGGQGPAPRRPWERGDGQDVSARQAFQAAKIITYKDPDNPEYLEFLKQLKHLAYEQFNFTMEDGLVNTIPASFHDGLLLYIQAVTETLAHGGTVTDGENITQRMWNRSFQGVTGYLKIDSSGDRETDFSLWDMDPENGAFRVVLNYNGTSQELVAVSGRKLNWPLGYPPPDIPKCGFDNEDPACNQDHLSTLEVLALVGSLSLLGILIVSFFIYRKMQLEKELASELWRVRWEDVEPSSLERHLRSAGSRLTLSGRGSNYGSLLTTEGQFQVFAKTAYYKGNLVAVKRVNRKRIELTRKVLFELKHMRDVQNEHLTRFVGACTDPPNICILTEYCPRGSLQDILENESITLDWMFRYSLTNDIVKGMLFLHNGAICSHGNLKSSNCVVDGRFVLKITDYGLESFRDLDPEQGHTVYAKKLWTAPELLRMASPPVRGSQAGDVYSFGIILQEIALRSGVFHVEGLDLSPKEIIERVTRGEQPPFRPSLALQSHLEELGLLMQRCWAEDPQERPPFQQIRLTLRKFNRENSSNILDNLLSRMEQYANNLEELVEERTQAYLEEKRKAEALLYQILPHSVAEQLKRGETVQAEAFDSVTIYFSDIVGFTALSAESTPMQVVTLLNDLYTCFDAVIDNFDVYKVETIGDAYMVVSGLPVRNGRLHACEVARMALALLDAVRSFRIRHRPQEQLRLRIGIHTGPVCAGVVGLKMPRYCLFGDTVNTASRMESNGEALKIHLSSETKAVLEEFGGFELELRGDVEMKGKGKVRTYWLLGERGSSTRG
Description: NPRA Functional Cell Assay (cGMP HTRF, NPRA HEK JumpIn stable cells). In kind it is cell-based. The note with it: cGMP production, 1 hour at 37° C., 10-point dose response. The procedure, abridged: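 cGMP HTRF read-out after 1 hour compound treatment at 37° C. of human NPRA-expressing HEK JumpIn cells, 1500 cells/well, in buffer with phosphodiesterase inhibitors IBMX and RO20 (100 uM each). Signal converted to [cGMP] by calibration curve; EC50s fitted by 4-parameter logistic; 50 nM h-ANP as positive response.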
(In general: In TR-FRET formats the signal depends on donor and acceptor labels being close together.)
As to `CC(C)(C)[C@H]1CCc2nc3sc(C(=O)N[C@H](CCN4C[C@@H](O)[C@H](O)C4)c4ccc(-c5ccc(=O)[nH]c5)cc4)cc3cc2C1` (racemic) [Example 51, rac-(6S)-6-tert-butyl-N-[rac-(1R)-1-[4-(6-oxo-1H-pyridin-3-yl)phenyl]-3-[rac-(3R,4R)-3,4-dihydroxypyrrolidin-1-ium-1-yl]propyl]-5,6,7,8-tetrahydrothieno[2,3-b]quinoline-2-carboxamide;formate], the EC50 (as a rule, the concentration at which the effect is half-maximal) was determined as 705 nM. This counts as sub-micromolar.
The same measure for `CC(C)(C)[C@H]1CCc2nc3sc(C(=O)N[C@H](CCNC4CCCC4)c4ccc(-c5ccc(=O)[nH]c5)cc4)cc3cc2C1` (racemic) [Example 52, cyclopentyl-[rac-(3R)-3-[4-(6-oxo-1H-pyridin-3-yl)phenyl]-3-[[rac-(6S)-6-tert-butyl-5,6,7,8-tetrahydrothieno[2,3-b]quinoline-2-carbonyl]amino]propyl] ammonium;formate]: 729 nM.
The same measure for `CC(C)(C)[C@H]1CCc2nc3sc(C(=O)N[C@H](CCN4CC5CC4CO5)c4ccc(-c5ccc(=O)[nH]c5)cc4)cc3cc2C1` (mixture of isomers) [Example 53, rac-(6S)-6-tert-butyl-N-[rac-(1R)-3-(2-oxa-5-azoniabicyclo[2.2. 1]heptan-5-yl)-1-[4-(6-oxo-1H-pyridin-3-yl)phenyl]propyl]-5,6,7,8-tetrahydrothieno[2,3-b]quinoline-2-carboxamide;formate]: 755 nM; for `CC(C)(C)[C@H]1CCc2nc3sc(C(=O)N[C@H](CCNC4CCNC(=O)C4)c4ccc(-c5ccc(=O)[nH]c5)cc4)cc3cc2C1` (mixture of isomers) [Example 54, (2-oxo-4-piperidyl)-[rac-(3R)-3-[4-(6-oxo-1H-pyridin-3-yl)phenyl]-3-[rac-(6S)-6-tert-butyl-5,6,7,8-tetrahydrothieno[2,3-b]quinoline-2-carbonyl]amino]propyl] ammonium;formate]: 758 nM; for `CC(C)(C)[C@H]1CCc2nc3sc(C(=O)N[C@H](CCN4CCCC(O)C4)c4ccc(-c5ccc(=O)[nH]c5)cc4)cc3cc2C1` (mixture of isomers) [Example 55, rac-(6S)-6-tert-butyl-N-[rac-(1R)-3-(3-hydroxypiperidin-1-ium-1-yl)-1-[4-(6-oxo-1H-pyridin-3-yl)phenyl]propyl]-5,6,7,8-tetrahydrothieno[2,3-b]quinoline-2-carboxamide;formate]: 792 nM.
The compound `CC(C)(C)[C@H]1CCc2nc3sc(C(=O)N[C@H](CCN4CCCC(C(=O)O)C4)c4ccc(-c5ccc(=O)[nH]c5)cc4)cc3cc2C1` (mixture of isomers) [Example 56, 1-[rac-(3R)-3-[4-(6-oxo-1H-pyridin-3-yl)phenyl]-3-[[rac-(6S)-6-tert-butyl-5,6,7,8-tetrahydrothieno[2,3-b]quinoline-2-carbonyl]amino]propyl]piper idin-1-ium-3-carboxylic acid;formate] registered a concentration giving a half-maximal response (EC50) of 811 nM.
In turn, `CC(C)(C)[C@H]1CCc2nc3sc(C(=O)N[C@H](CCNC4CNC(=O)C4)c4ccc(-c5ccc(=O)[nH]c5)cc4)cc3cc2C1` (mixture of isomers) [Example 57, (5-oxopyrrolidin-3-yl)-[rac-(3R)-3-[4-(6-oxo-1H-pyridin-3-yl)phenyl]-3-[[rac-(6S)-6-tert-butyl-5,6,7,8-tetrahydrothieno[2,3-b]quinoline-2-carbonyl]amino]propyl] ammonium;formate] displayed an EC50 of 889 nM. This EC50 and that of the compound before are within 1.5-fold of each other.
On to `CC(C)(C)[C@H]1CCc2nc3sc(C(=O)N[C@H](CCN4CCC(c5nn[nH]n5)C4)c4ccc(-c5ccc(=O)[nH]c5)cc4)cc3cc2C1` (mixture of isomers) [Example 58, rac-(6S)-6-tert-butyl-N-[rac-(1R)-1-[4-(6-oxo-1H-pyridin-3-yl)phenyl]-3-[3-(2H-tetrazol-5-yl)pyrrolidin-1-ium-1-yl]propyl]-5,6,7,8-tetrahydrothieno[2,3-b]quinoline-2-carboxamide;formate], for which the EC50 came out at 915 nM. The EC50 values of the last two compounds are within 1.5-fold of each other.
`CC(C)(C)[C@H]1CCc2nc3sc(C(=O)N[C@H](CCN4CCC(F)CC4)c4ccc(-c5ccc(=O)[nH]c5)cc4)cc3cc2C1` (racemic) [Example 59, rac-(6S)-6-tert-butyl-N-[rac-(1R)-3-(4-fluoropiperidin-1-ium-1-yl)-1-[4-(6-oxo-1H-pyridin-3-yl)phenyl]propyl]-5,6,7,8-tetrahydrothieno[2,3-b]quinoline-2-carboxamide;formate]: a half-maximal response (EC50) required 1010 nM. This EC50 and that of the compound before are within 1.5-fold of each other.
The same measure for `CC(C)(C)[C@H]1CCc2nc3sc(C(=O)N[C@H](CCN4CCC(C(F)F)CC4)c4ccc(-c5ccc(=O)[nH]c5)cc4)cc3cc2C1` (racemic) [Example 60, rac-(6S)-6-tert-butyl-N-[rac-(1R)-3-[4-(difluoromethyl)piperidin-1-ium-1-yl]-1-[4-(6-oxo-1H-pyridin-3-yl)phenyl]propyl]-5,6,7,8-tetrahydrothieno[2,3-b]quinoline-2-carboxamide;formate]: 1010 nM; for `CC(C)(C)[C@H]1CCc2nc3sc(C(=O)N[C@H](CCN4C[C@@H](O)[C@@H](O)C4)c4ccc(-c5ccc(=O)[nH]c5)cc4)cc3cc2C1` (racemic) [Example 61, rac-(6S)-6-tert-butyl-N-[rac-(1R)-1-[4-(6-oxo-1H-pyridin-3-yl)phenyl]-3-[rac-(3S,4R)-3,4-dihydroxypyrrolidin-1-ium-1-yl]propyl]-5,6,7,8-tetrahydrothieno[2,3-b]quinoline-2-carboxamide;formate]: 1040 nM; for `CC(C)(C)[C@H]1CCc2nc3sc(C(=O)N[C@H](CCN[C@@H]4C[C@H](CO)[C@@H](O)[C@H]4O)c4ccc(-c5ccc(=O)[nH]c5)cc4)cc3cc2C1` (racemic) [Example 62, [rac-(1R,2S,3R,4R)-2,3-dihydroxy-4-(hydroxymethyl)cyclopentyl]-[rac-(3R)-3-[4-(6-oxo-1H-pyridin-3-yl)phenyl]-3-[rac-(6S)-6-tert-butyl-5,6,7,8-tetrahydrothieno[2,3-b]quinoline-2-carbonyl]amino]propyl] ammonium;formate]: 1130 nM.
Next, `COC1CCN(CC[C@@H](NC(=O)c2cc3cc4c(nc3s2)CC[C@H](C(C)(C)C)C4)c2ccc(-c3ccc(=O)[nH]c3)cc2)CC1` (racemic) [Example 63, rac-(6S)-6-tert-butyl-N-[rac-(1R)-3-(4-methoxypiperidin-1-ium-1-yl)-1-[4-(6-oxo-1H-pyridin-3-yl)phenyl]propyl]-5,6,7,8-tetrahydrothieno[2,3-b]quinoline-2-carboxamide;formate]: 1190 nM; `CN1CC(NCC[C@@H](NC(=O)c2cc3cc4c(nc3s2)CC[C@H](C(C)(C)C)C4)c2ccc(-c3ccc(=O)[nH]c3)cc2)C1` (racemic) [Example 64, (1-methylazetidin-3-yl)-[rac-(3R)-3-[4-(6-oxo-1H-pyridin-3-yl)phenyl]-3-[[rac-(6S)-6-tert-butyl-5,6,7,8-tetrahydrothieno[2,3-b]quinoline-2-carbonyl]amino]propyl] ammonium;formate]: 1230 nM; `CC1(O)CN(CC[C@@H](NC(=O)c2cc3cc4c(nc3s2)CC[C@H](C(C)(C)C)C4)c2ccc(-c3ccc(=O)[nH]c3)cc2)C1` (racemic) [Example 65, rac-(6S)-6-tert-butyl-N-[rac-(1R)-3-(3-hydroxy-3-methyl-azetidin-1-ium-1-yl)-1-[4-(6-oxo-1H-pyridin-3-yl)phenyl]propyl]-5,6,7,8-tetrahydrothieno[2,3-b]quinoline-2-carboxamide;formate]: 1300 nM.
